# Measurements reported in US20250120942A1, “BRAIN FUNCTION IMPROVING AGENT” (OSAKA UNIVERSITY, priority 2021, published 2025).
# Tested on: mouse reared in long-term isolation
# Experiment: Novel object recognition test after long-term administration in feed during isolated rearing (Test Example 4)
# Type: in vivo, ddY mouse
# Details: MF powdery feed containing 7 mg/100 g for 5 weeks of isolation; FIG. 4(A),(B)
# Experimental: The compound A was orally administered for a long time and the effect of preventing the onset of cognitive dysfunction caused by the long-term isolated rearing was examined.
# 3-weeks-old male ddY mice were purchased from Japan SLC, Inc. The mice were reared in the rearing chamber provided with air conditioner (under the condition that the temperature was 22° C.±1° C., the relative humidity was 50±10%, and the irradiation time was 12 hours (8:00 to 20:00)). The feeding method was that the commercially available MF powdery feed (manufactured by Oriental Yeast Co., ltd.) and tap water were taken freely. […]
# After the long-term rearing of 5 weeks, the object cognitive function was evaluated by the same method as that described in Test Example 3 and the effect of preventing the onset of cognitive dysfunction by administering the compound A during the long-term rearing was examined.
# From the results obtained, the mean (Mean) and the standard error (SEM) were calculated. The significant difference of exploratory time in each group was assessed by using Student's t-test and the significant differences between the control group and Vehicle group and between the administration group of compound A and Vehicle group of Discrimination index were assessed by using Turkey-Kramer's test. […]
smiles,measurement,value
"O=C1CC[C@H](Cc2cc(O)cc(O)c2)O1 [compound A, (R)-5-(3,5-dihydroxyphenyl)-γ-valerolactone]",onset of cognitive dysfunction caused by long-term isolated rearing stress (exploratory time and Discrimination index),significantly inhibited
